Measurements published in ChEMBL document CHEMBL3352655, “Synthesis and biological evaluation of norcantharidin derivatives as protein phosphatase-1 inhibitors” (Bioorg Med Chem Lett, 2015).
Active and inactive are the calls of the source. The rule behind the calls is not given here.

Experiments:
[1] = test system: A549; assay: Cytotoxicity against human A549 cells after 48 hrs by MTT assay; type: functional, cell-based; conditions: A549, 48 h
[2] = test system: HepG2; assay: Cytotoxicity against human HepG2 cells after 48 hrs by MTT assay; type: functional, cell-based; conditions: HepG2, 48 h
[3] = test system: HeLa; assay: Cytotoxicity against human HeLa cells after 48 hrs by MTT assay; type: functional, cell-based
[4] = Cytotoxicity against human HCT8 cells after 48 hrs by MTT assay; type: functional, cell-based; conditions: HCT-8, 48 h
[5] = Cytotoxicity against human WI38 cells after 48 hrs by MTT assay; type: cell-based; conditions: WI-38, 48 h
[6] = Partition coefficient, log P of the compound; type: physicochemical; conditions: octanol/water
[7] = (§1) Inhibition of protein phosphatase-1 (unknown origin) using phosphopeptide (Lys-Arg-pThr-Ile-Arg) substrate incubated for 60 mins by colorimetric analysis based serine/threonine assay; parameters: species or system Homo sapiens
[8] = organism: Homo sapiens; assay: as §1
[9] = test system: Calf thymus DNA; assay: Binding affinity to calf thymus DNA assessed as reduction in fluorescence intensity of compound-DNA complex at 1 uM by fluorescence spectroscopy; type: nucleic-acid assay; conditions: Bos taurus
[10] = test system: HeLa; assay: Inhibition of microtubule formation in human HeLa cells at 5 uM after 24 hrs by DAPI staining based immunofluorescence assay; type: functional, cell-based
[11] = test system: HeLa; assay: Induction of cell shrinkage in human HeLa cells at 5 uM after 24 hrs by DAPI staining based immunofluorescence assay; type: functional
[12] = test system: HeLa; assay: Induction of nuclear fragmentation in human HeLa cells at 5 uM after 24 hrs by DAPI staining based immunofluorescence assay; type: functional, cell-based
[13] = test system: HeLa; assay: Induction of nuclear condensation in human HeLa cells at 5 uM after 24 hrs by DAPI staining based immunofluorescence assay; type: functional, cell-based

SMILES	logP [6]	IC50 [7] [µM]	inhibition [8]	Activity [9]	IC50 [1] [µM]	IC50 [2] [µM]	IC50 [3] [µM]	IC50 [4] [µM]	IC50 [5] [µM]	inhibition [10]	Activity [11]	Activity [12]	Activity [13]
O=C1[C@@H]2[C@H](C(=O)N1c1ccc(S(=O)(=O)N3CCOCC3)cc1)[C@@H]1CC[C@H]2O1	0.9	–	–	–	39.2	28.7	16.3	43.5	52.1	–	–	–	–
O=C1OC(=O)C2C3CCC(O3)C12 (stereo not given) [DEMETHYL-CANTHARIDIN]	0.7	2.6	–	–	12.1	24.7	12.4	28.4	26.7	–	–	–	–
O=C(Nc1ccc(S(=O)(=O)NC2CCCCC2)cc1)C1C(C(=O)O)[C@H]2CC[C@@H]1O2 (stereo not given in full)	0.2	–	–	–	36.2	22.5	18.7	31	62.5	–	–	–	–
O=C1[C@@H]2[C@H](C(=O)N1c1ccc(S(=O)(=O)N3CCN(c4ccc(F)cc4)CC3)cc1)[C@@H]1CC[C@H]2O1	1.4	2.3	–	–	25.8	25.6	18.6	32.1	51.8	–	–	–	–
O=C(Nc1ccc(S(=O)(=O)NC2CC2)cc1)C1C(C(=O)O)[C@H]2CC[C@@H]1O2 (stereo not given in full)	0.2	–	–	–	34.3	26.2	20.9	28.3	52.1	–	–	–	–
O=C(Nc1ccc(S(=O)(=O)NC2CCCC2)cc1)C1C(C(=O)O)[C@H]2CC[C@@H]1O2 (stereo not given in full)	0.2	–	–	–	20.1	22.3	17.6	30.2	59	–	–	–	–
O=C1[C@@H]2[C@H](C(=O)N1c1ccc(S(=O)(=O)NC3CCCC3)cc1)[C@@H]1CC[C@H]2O1	1.1	–	–	–	32.5	23.5	20.7	32.8	40.3	–	–	–	–
CCOC(=O)Cc1csc(NC(=O)C2C(C(=O)O)[C@H]3CC[C@@H]2O3)n1 (stereo not given in full)	0.8	–	–	–	> 100	> 100	> 100	> 100	> 100	–	–	–	–

Now from value to compound, other results behind:

logP [6]	IC50 [7] [µM]	inhibition [8]	Activity [9]	SMILES	IC50 [1] [µM]	IC50 [2] [µM]	IC50 [3] [µM]	IC50 [4] [µM]	IC50 [5] [µM]	inhibition [10]	Activity [11]	Activity [12]	Activity [13]
0.4	–	–	–	CCN1CCN(S(=O)(=O)c2ccc(NC(=O)C3C(C(=O)O)[C@H]4CC[C@@H]3O4)cc2)CC1 (stereo not given in full)	28.4	20.2	15.7	27.4	73.1	–	–	–	–
0.4	–	–	–	O=C(Nc1ccc(S(=O)(=O)N2CCOCC2)cc1)C1C(C(=O)O)[C@H]2CC[C@@H]1O2 (stereo not given in full)	24.2	19.3	17.2	31.3	48.8	–	–	–	–
0.6	0.2	Dose-dependent effect	Active	O=C(Nc1ccc(S(=O)(=O)N2CCN(c3ccc(F)cc3)CC2)cc1)C1C(C(=O)O)[C@H]2CC[C@@H]1O2 (single isomer, unassigned)	18.4	14.4	6.3	16.6	50.2	Active	Active	Active	Active
